In patent US20230372282A1, “METHOD FOR TREATEING OR […] OPTIC NEUROPATHY” (TZU CHI UNIVERSITY, priority 2022, published 2023):

Experiments:
[1] = system: retinal ganglion cells (RGCs); experiment: Retrograde labeling of RGCs with FluoroGold: RGC density and survival after AION induction; type: in vivo, rat
Experimental: (§1) Adult male Wistar rats of 4 to 6 weeks of age (weighing 100-125 g) were used in the animal model of ischemic optic neuropathy and were divided into three groups: the sham group, the group administered with PBS following ischemic optic neuropathy injury, and the group with ischemic optic neuropathy injury accompanied by intraperitoneal injection of BP at 10 mg/kg for 7 consecutive days. The rats were housed in an animal room having a 12-hour light/dark cycle (the light cycle time is from 7 a.m. to 7 p.m.) with temperature controlled at 23° C. and humidity controlled at 55%, and supplied with filtered sterilized water and general rodent feed. During the experiment, general anesthesia of rats was performed by intramuscular injection of ketamine at 100 mg/kg and xylazine at 10 mg/kg. Local anesthesia was performed by using 0.5% Alcaine, and mydriasis was performed by administering Mydrin-P. To sacrifice the rats, carbon dioxide at a filling rate of 5 L/min was injected so that the volume of carbon dioxide was 20% of that of the cage, thereby achieving the main goal of reducing animal suffering.
(§2) Firstly, under local anesthesia, rats were administrated with Alcaine and Mydrin-P eye drops to induce mydriasis. Subsequently, the rats were intravenously injected with rose bengal (2.5 mM dissolved in PBS at pH 7.4) at 1 mL/kg, and immediately irradiated with 12 pulses (once per second) of argon green laser (wavelength: 532 nm, size: […], power: 80 mW) to excite various parts of the optic disc. In addition, the laser was focused on the optic disc by an ophthalmoscope. Then, Tobradex eye ointment was applied evenly to the rats' eyes. Finally, the physical health of the rats was taken care of daily until the end of the study.
Retrograde labeling was performed three weeks after the rats were AION induced. […] One week after labeling, the rats were sacrificed and the eyeballs were carefully removed from the […] and fixed in 10% formalin for 2 hours. The entire retina was placed flat on a slide and paired with a filter set (excitation filter: 350-400 nm; radiation filter: 515 nm) and observed for morphology under a fluorescence microscope. The region with a radius of 1 mm from the center of the retina is defined as the central region, and the region with a radius of 3 mm from the center is defined as the mid-peripheral region. Ten blocks (38,250 μm^2; 225 μm×170 μm) were randomly selected from the central region and the mid-peripheral region to estimate the density of RGCs to determine the survival rate of RGCs.
To investigate the effect of BP on RGC survival rates after AION induction, retrograde labeling was carried out using Fluorogold (FG). […]

[2] = system: rAION model; experiment: Flash visual evoked potential (FVEP), P1-N2 amplitude after AION induction; type: in vivo, rat; details: 28 days after AION induction, BP 10 mg/kg i.p. 7 days; PBS group 13.70±5.59, sham 33.63±8.30
Experimental: as §1, with “Local anesthesia was performed by using 0.5% Alcaine, and mydriasis was performed by administering Mydrin-P. To sacrifice the rats, carbon dioxide at a filling rate of 5 L/min was injected so that the volume of carbon dioxide was 20% of that of the cage, thereby achieving the main goal of reducing animal suffering.” left out
Twenty-eight days after AION induction, electrodes were implanted into the primary visual cortex (anteroposterior: −8 mm; dorsoventral: ±3 mm) and frontal cortex (anteroposterior: +1 mm), while a ground electrode was implanted in the tail. […] The general visual function was evaluated by P1-N2 amplitude. […]

[3] = system: rAION model; experiment: Optical coherence tomography (OCT) imaging of optic nerve width and RNFL after AION induction; type: in vivo, rat; details: BP 10 mg/kg i.p.
Experimental: as §1, §2
On days 1, 3, 7, 14, and 28 after AION induction, the optic nerve width (ONW) and the coherence tomography image of the retinal nerve fiber layer (RNFL) were obtained using a Micron IV retinal microscope. The vertical resolution and horizontal resolution of the imaging system were set to be 1.8 μm and 3 μm, respectively, to provide a 3.2 mm field of view and 1.2 mm depth of field for the retina. The cornea was moistened with Methocel 2%. The Micron eyepiece was glued to be in direct contact with the eye. To allow vertical light penetration through the cornea, the retinal nerve fiber layer and the Bruch's membrane opening (ONW) were imaged with circular and linear scans, respectively, with an average of 50 frames per scan.
The optic nerve width (ONW) and retinal nerve fiber layer (RNFL) thickness were measured on days 1, 3, 7, 14, and 28 using optical coherence tomography (OCT) imaging in the sham group, PBS-treated group, and BP-treated group. As shown in FIG. 5A and FIG. 5B, after AION induction, optic disc swelling can clearly observed in the acute onset stage, and it was improved by administration of BP on days 3, 7 and 28 (311.95±23.21 μm vs. 469.58±29.35 μm, 259.35±33.73 μm vs. 329±25.73 μm, 273.71±23.22 μm vs. 300.73±26.41 μm, respectively). Compared with the PBS-treated group, BP was efficient in maintaining the area of the RNFL (0.089±0.0027 mm^2 vs. 0.08±0.0028 mm^2, 0.074±0.0089 mm^2 vs. 0.047±0.0042 mm^2 respectively) on days 14 and 28.

[4] = system: RGC layer; experiment: TUNEL assay of apoptotic cells in the RGC layer; type: in vivo, rat; details: rAION rats, BP 10 mg/kg i.p. 7 days; PBS group 11.2±2.8, sham 2.8±1.9
Experimental: as §1, with “suffering. […]” for “suffering.”
Apoptotic cells in the ganglion cell layer (GCL) were detected using TUNEL assay according to the manufacturer's protocol. TUNEL-positive cells were calculated manually based on at least 6 retinal sections per eyeball in three groups (n=6 for each group). […]

[5] = system: ED1+ macrophages; experiment: Immunohistochemistry of ED1+ macrophage infiltration in the optic nerve; type: in vivo, rat; details: rAION rats, BP 10 mg/kg i.p. 7 days; PBS group 166.4±19.3, sham 8.7±4.8
Experimental: as §1, with “Local anesthesia was performed by using 0.5% Alcaine, and mydriasis was performed by administering Mydrin-P. To sacrifice the rats, carbon dioxide at a filling rate of 5 L/min was injected so that the volume of carbon dioxide was 20% of that of the cage, thereby achieving the main goal of reducing animal suffering.” left out
(§3) First, vertical-sections of the ON were blocked with 2% bovine serum albumin (BSA) containing 0.3% triton X-100 for 1 hour. […] Fluorescence photographs of the sections of the ON tissue were taken at 10× magnification and 20× magnification using the Zeiss LSM 900 confocal system. The 20× magnified image of ED1^+ cells was analyzed using ImageJ software for quantification of exogenous macrophages. […]

[6] = system: CNPase; experiment: Immunohistochemistry of CNPase in the optic nerve (myelin integrity); type: in vivo, rat; details: rAION rats, BP 10 mg/kg i.p. 7 days; after AION induction 4.24±0.71, sham 11.06±2.60
Experimental: as §1, with “Local anesthesia was performed by using 0.5% Alcaine, and mydriasis was performed by administering Mydrin-P. To sacrifice the rats, carbon dioxide at a filling rate of 5 L/min was injected so that the volume of carbon dioxide was 20% of that of the cage, thereby achieving the main goal of reducing animal suffering.” left out
as §3

[7] = system: NF-κB signaling pathway; experiment: Western blotting of retinal protein, NF-κB-related pathway; type: in vivo; details: rat retina, rAION, compared with AION+PBS group
Experimental: as §1, §2
The detailed process of Western blotting process was described in the inventors' previous articles Cell Death Dis. 2017, 8, e3172 and Nat. Med. 2015, 21, 677-687. The total protein of the rat retina was extracted with modified radio immunoprecipitation assay (RIPA) buffer, and the protein concentrations were analyzed using the bicinchoninic acid (BCA) protein assay kit. […] The protein signal on the membrane was detected using an enhanced chemiluminescence (ECL) kit. The signal strength of the bands was quantified using ImageJ software.
Previous studies have pointed out that the upregulation of reactive oxygen species (ROS) in ischemic injury induces inflammatory response through the IκBα-NF-κB signaling pathway. Here, protein expression of the NF-κB-related pathway was evaluated to investigate the molecular mechanisms involved in the protection of nerves by administration of BP. […]

[8] = rodent model of NAION, BP 10 mg/kg i.p. 7 days

## CCC/C=C1\OC(=O)c2ccccc21 [BP, n-butylidenephthalide]
[1]; rAION Wistar rats, BP 10 mg/kg intraperitoneal for 7 consecutive days, FluoroGold labeling 3 weeks after induction, sacrifice 1 week later, PBS group 935±514, sham 2771±453
  density of RGCs in the central retina: 2172±458 RGCs per mm^2
[1]; rAION Wistar rats, BP 10 mg/kg intraperitoneal for 7 consecutive days, PBS group 750±452, sham 2236±487
  density of RGCs in the mid-peripheral retina: 1962±505 RGCs per mm^2
[1]; [8]
  improvement of RGC survival rate in the central retina: 44.7%
  improvement of RGC survival rate in the mid-peripheral retina: 54.2%
[2]
  FVEP P1 to N2 amplitude: 22.01±7.03 μV
[3]; day 3 after AION induction, vs. 469.58±29.35 PBS group
  optic nerve width (ONW): 311.95±23.21 μm
[3]; day 7 after AION induction, vs. 329±25.73 PBS group
  optic nerve width (ONW): 259.35±33.73 μm
[3]; day 14 after AION induction, vs. 0.08±0.0028 PBS group
  area of the RNFL: 0.089±0.0027 mm^2
[3]; day 28 after AION induction, vs. 0.047±0.0042 PBS group
  area of the RNFL: 0.074±0.0089 mm^2
[3]; day 28 after AION induction, vs. 300.73±26.41 PBS group
  optic nerve width (ONW): 273.71±23.22 μm
[4]
  TUNEL-positive cells in the RGC layer per high powered field (HPF): 3.7±1.5
[5]
  ED1-positive cells in the optic nerve per high powered field: 80.1±28.9
[6]
  expression of CNPase in the optic nerve (IHC signal): 7.20±1.22
[7]
  expression of IL-1β: reduced expression
  expression of NLRP3: reduced expression
  phosphorylation of IκBα (phospho-IκBα expression level): significantly inhibited phosphorylation
  phosphorylation of NF-κB (phospho-NF-κB expression level): significantly inhibited phosphorylation
